{"source": "patent US20220054494A1", "about": "“METHODS FOR TREATING BLADDER AND URETHRA DYSFUNCTION AND DISEASE” (University of Pittsburgh - Of the Commonwealth System of …, priority 2019, published 2022)", "key": {"cathepsin B": {"test_system": "cathepsin B", "assay": "Western immunoblotting, cathepsin B", "assay_type": "in vivo, rat", "settings": "aged rats; oral 8-AG 5 mg/kg/day, 6 weeks", "protocol": "Western immunoblotting: Following the testing paradigms, rats were deeply anesthetized, bladders as well as the proximal urethra were removed, and one half of each preparation was homogenized using Lysing Matrix D in a FastPrep 24 instrument (MP Biomedicals, Solon, Ohio) in HBSS [5 mM KCl, 0.3 mM KH2PO4, 138 mM NaCl, 4 mM NaHO3, 0.3 mM Na2HCO3, 0.3 mM Na2HPO4, 5.6 mM glucose, and 10 mM Hepes, pH 7.4 containing a complete protease inhibitor cocktail (1 tablet/10 ml, ROCHE®, Indianapolis, Ind.) and a phosphatase inhibitor cocktail (SIGMA®, 1:100)]. After centrifugation (13000 rpm; 15 min at 4° C.), the membrane protein fraction was prepared by suspending the membrane pellets in lysis buffer containing 0.3 M NaCl, 50 mM Tris-HCl (pH 7.6), and 0.5% Triton X-100 and the same concentration of protease inhibitors as above. The suspensions were incubated on ice and centrifuged (13000 rpm; 15 min at 4° C.). The protein concentrations of the combined supernatants were determined using the PIERCE® BCA protein assay (THERMO SCIENTIFIC®, Rockford, Ill.). […] As a loading control, total protein per sample was determined using Bio-Rad Stain Free SDS-PAGE gel technology. UV-activated protein fluorescence was imaged on a CHEMIDOC® MP (BIO-RAD®). […] The volume (intensity) of each protein species was determined and normalized to total protein using Image Lab software (BIO-RAD®). […]"}, "cleaved PARP": {"test_system": "cleaved PARP", "assay": "Western immunoblotting, cleaved PARP", "assay_type": "in vivo, rat", "settings": "aged rats; oral 8-AG 5 mg/kg/day, 6 weeks", "protocol": "Western immunoblotting: One half of each bladder preparation was homogenized using Lysing Matrix D in a FastPrep 24 instrument (MP Biomedicals, Solon, Ohio) in HBSS (5 mM KCl, 0.3 mM KH2PO4, 138 mM NaCl, 4 mM NaHO3, 0.3 mM Na2HCO3, 0.3 mM Na2HPO4, 5.6 mM glucose and 10 mM Hepes, pH 7.4) containing complete protease inhibitor cocktail (1 tablet/10 ml, ROCHE®, Indianapolis, Ind.)) and phosphatase inhibitor cocktail (SIGMA®, 1:100). After centrifugation (13000 rpm; 15 min at 4° C.), the membrane protein fraction was prepared by suspending the membrane pellets in lysis buffer containing 0.3 M NaCl, 50 mM Tris-HCl (pH 7.6) and 0.5% Triton X-100 and the same concentration of protease inhibitors as above. The suspensions were incubated on ice and centrifuged (13000 rpm; 15 min at 4° C.). The protein concentrations of the combined supernatants were determined using the PIERCE® BCA protein assay (THERMO SCIENTIFIC®, Rockford, Ill.). After denaturation (100° C. for 5 min) in the presence of Laemmli sample buffer, lysate from each sample was separated on a 4-15% TGX Stain-Free SDS-PAGE gel (BIO-RAD® Laboratories, Hercules, Calif.). As a loading control, total protein per sample was determined using Bio-Rad® Stain Free SDS-PAGE gel technology. UV-activated protein fluorescence was imaged on a CHEMIDOC® MP (BIO-RAD®). […] The volume (intensity) of each protein species was determined and normalized to total protein using Image Lab software (BIO-RAD®)."}}, "note": "“Also recorded” adds a separate entry of the source."}
{"smiles": "Nc1nc2[nH]c(N)nc2c(=O)[nH]1", "note": "[8-AG, 8-Aminoguanine]", "values": [{"measurement": "cathepsin B expression in urethra", "setting": "cathepsin B", "value": "trend toward reversal"}, {"measurement": "EUS cleaved PARP", "setting": "cleaved PARP", "value": "restored to a younger state"}, {"measurement": "cleaved PARP in detrusor smooth muscle", "setting": "cleaved PARP", "value": "levels similar to the younger state; also recorded: restored these biomarkers to that of a younger state"}, {"measurement": "urethral cleaved PARP", "setting": "cleaved PARP", "value": "normalized to a younger state"}]}
